Data: US20260242606A1, “PROCESS OF PREPARATION OF RESIDUE FREE SOLVENT BLUE 67 DYE” (RATHI DYE CHEM (P) LTD, priority 2023, published 2026)

Assay: Estimation of residue content in Solvent Blue 67 dye by filtration of the dye solution in organic solvent
Assay type: physicochemical
Method: For the preparation of Solvent Blue 67, chlorosulfonation is carried out in a vessel by reacting chlorosulfonic acid with 300 g of crude copper phthalocyanine blue (CPC) in presence of acid chloride followed by the process of drowning, filtration, homogenization, condensation, clarification, filtration, spin flash drying, airclassifying and sieving to retrieve the final product. The final product obtained is 560 g to 600 g of Solvent Blue 67 with purity 100%+5% coloristic value. Further, the estimation of residue content is determined by filtration process of prepared Solvent Blue 67 dye using organic solvent and the weight of residue is calculated.
An adequate quantity of Solvent Blue 67 of about 20 g to 60 g is dissolved in 50 ml to 150 ml of alkyl ester (or alkyl ketonic organic solvent) based on end process in a glass beaker. […]
The resultant dye solution is filtered through a filtration assembly. […] The residue left in the beaker is quantitatively transferred to the filter using 20 ml to 30 ml of alkyl ester (or alkyl ketonic organic solvent) and the filtrate is further washed with 15 to 25 ml of the same solvent to make it colour free. […] The weight of residue is calculated as weights of before and after filtration and expressed in PPM. […]

residue content (Example 1, after clarification 225 (circulated in filter of 10 to 100 mesh up to 24 hrs), cake dried): below 40 PPM
Substance: Solvent Blue 67
presence of residue (FIGS. 2a and 2b) (dye dissolved in alkyl ester or alkyl ketonic organic solvent, filtered through 20 to 50 micron stainless-steel mesh): does not show presence of any amount of residue
